Laboratory results: patent publication US20260108561A1, “COMPOSITION FOR CELL TRANSPLANTATION THERAPY AND THE USE THEREOF” (NATIONAL UNIVERSITY OF SINGAPORE, priority 2022, published 2026)

B1: CCL4: chemokine ligand 4, ligand of CCR5 (protein, UniProt P13236 24-92, looked up)
C-C motif chemokine 4: APMGSDPPTACCFSYTARKLPRNFVVDYYETSSLCSQPAVVFQTKRSKQVCADPSESWVQEYVYDLELN
B2: CCL3: chemokine ligand 3, ligand of CCR5 (protein, UniProt P10147 24-92, looked up)
C-C motif chemokine 3: SLAADTPTACCFSYTSRQIPQNFIADYFETSSQCSKPGVIFLTKRSRQVCADPSEEWVQKYVSDLELSA
B3: CCL5: chemokine ligand 5, ligand of CCR5 (protein, UniProt P13501 24-91, looked up)
C-C motif chemokine 5: SPYSSDTTPCCFAYIARPLPRAHIKEYFYTSGKCSNPAVVFVTRKNRQVCANPEKKWVREYINSLEMS

Assays:
[1] = test system: grafted NPCs in the ischemic core; experiment: Survival and differentiation of NPCs transplanted into the ischemic core of photothrombotic stroke mice (immunohistochemistry, stereology); type: in vivo, SCID mice; settings: for Cleaved-caspase3 immunostaining in grafted cells / Grafted (GFP+) cells in the stroke cavity: 7 days post transplantation; for Grafted (GFP+) cells in the stroke cavity: NPCs injected into ischemic core 2 weeks after stroke; for Gross appearance of the cortex: 30 days post transplantation; for Survival of grafted NPCs (overall conclusion): NPCs transplanted into the ischemic core
Procedure: All animal studies were performed in accordance with the institutional animal care and use committee at Duke-NUS Medical School. Ischemic strokes in adult (10-12 weeks) male SCID mice were induced through photo-thrombosis. Briefly, Rose Bengal was administered intravenously at a dose of 0.1 mg/g per mouse. Mouse skull was exposed under 2% isoflurane anaesthesia. The right motor cortex (anterior-posterior [AP]=+2 mm, lateral [L]=+1 mm) received a 2.5-mm diameter illumination of cold light through the intact skull for 15 min. Animals were randomly grouped and transplanted with forebrain glutamatergic precursors.
Animals were sacrificed with a lethal dose of pentobarbital (250 mg/kg) and immediately perfused with PBS followed by 4% cold paraformaldehyde (PFA). The brain samples were fixed in cold PFA for 2 hours and immersed in 30% sucrose at 4° C. for around 4 days until sunk. Serial coronal (1.54 mm to-0.22 mm from Bregma) sections were collected on a freezing microtome at a 40-μm thickness and stored at −20° C. For immunostaining, sections were incubated with blocking solution containing 10% normal donkey serum and 0.2% Triton-100 for 1 h at room temperature. Then sections were incubated with primary antibodies overnight at 4° C.
To quantify the population of DCX, SOX2, Ki67, NF and NeuN positive cells to total grafted cells (eGFP and Hoechst co-labelled), one brain slice was selected from every 6 serial slices on for stereological counting on Zeiss M1 Microscope with Stereo Investigator software (MBF Bioscience). In brief, immunolabeled slices were scanned on Zeiss M1 Microscope, grafts area was contoured manually, and then corresponding fluorescence labelled cells were unbiasedly counted. Population of cleaved-caspase3 expressing cells to total grafted cells was counted with ImageJ software. Data were replicated 4 to 6 times per group. To quantify the population of Brn2, Ctip2 and Foxp2 expressing cells to total GFP^+ cells on coverslips, all coverslips were scanned and captured by 20× objective with a confocal microscope (Nikon), and then was counted with ImageJ software. Data were replicated three times. All data were expressed as means±SEM.

[2] = test system: CCR5, CCL3, CCL4, and CCL5 protein expression; experiment: Western blotting of CCR5 and CCL3/4/5 in transplanted cortical tissue; type: in vivo, SCID mice; settings: day 44 after ischemic lesion / 30 days post-transplantation; normalized to GAPDH
Procedure: Animals were anaesthetized and perfused with cold PBS at 2, 14 and 44 days after stroke. The injured cortices or grafts (an area with a radius of 1 mm from the epicenter) were dissected manually under a stereomicroscope (Zeiss) and stored at −80° C.
NPCs and neurons were washed using PBS and resuspended in RIPA buffer with protease inhibitor and phosphatase inhibitor. Samples were collected to 1.5 mL tubes on ice for 15 mins. For tissue samples, extracts were sonicated in cold RIPA buffer with protease/phosphatase inhibitors. All samples were quantified using Quick Start™ Bradford Protein Assay (Bio-RAD), and then Laemmli buffer (Bio-RAD) was added to each tube. Samples were heated at 95° C. for 5 mins and stored at −80° C. Total 15 μg of extract was loaded to each well on a 10% Bis-Tris pre-casted gel for electrophoresis.
After running at 120 V for 40 mins, proteins were transferred to PVDF membranes at 400 mA for 30 mins. […] Then membranes were incubated with primary antibodies overnight at 4° C.: anti-CCR5 (1:1000, Abcam, ab110103), anti-CCL3 (1:1000, Abcam, ab259372), anti-CCL4 (1:1000, Abcam, EP521Y), anti-CCL5 (1:1000, Thermo Fisher Scientific, 701030), anti-GAPDH (1:5000, Thermo Fisher Scientific, MA5-15738). The membranes were washed three times by 0.1% TBST and incubated with corresponding secondary antibodies at room temperature for 1 hour. The protein bands were presented by Enhanced Chemiluminescence Substrate (Promega) and visualized in Bio-RAD Chemidoc system. All intensity of bands was analysed by ImageJ software and normalized to corresponding GAPDH bands.

NPCs = experiment: Apoptosis of cultured NPCs (cleaved-caspase3, TUNEL) under CCR5 ligands and CCR5 blockade; type: cell-based, Human; settings: for Proportion of cleaved-caspase3+ cells in NPCs: single ligand 300 ng/mL, compared with the control group
Procedure: Induction of forebrain glutamate NPCs was done using the following procedure. Briefly, H9 hESCs or eGFP H9 hESCs were cultured on 6-well plates with Matrigel/vitronectin coated for one week. ESC colonies were gently blown off by 1 mL pipettes to form cell aggregates at day 0. Cell aggregates were cultured in flasks for 7 days with the neural induction medium (NIM) consisting of DMEM/F12, 1×N2 supplement, 1×NEAA, 2-μM SB431542, and 2-μM DMH-1. Cell aggregates were adhered to 6-well plates in the presence of NIM with 5% FBS for 6 hours, and then fresh NIM was changed. The aggregates were fed with NIM till neural rosette formation at day 16. The rosettes were gently blown off using 1 mL pipettes and suspended in flasks with NIM for 7 days. Then, NIM was changed every four days from day 23. The neural precursor cells (NPCs) were maintained in NIM till transplantation or immunostaining. NPCs were digested into single cells using TrypLE for 3 min at day 49. After one additional day of culture in NIM supplemented with 1×B27 and 100 nM compound E, the NPCs were collected for transplantation in ischemic stroke models. B-27 supplement is a defined yet complex mixture of antioxidant enzymes, proteins, vitamins, and fatty acids that are combined in optimized ratios to support neuronal survival in culture. Compound E is a γ-secretase inhibitor. For immunostaining, NPCs were seeded on glass coverslips and staining was performed after one-week culture.
(§1) To test the effects of CCR5 activation on NPCs and neurons, cells were seeded on Matrigel coated coverslips or 6-well plates and treated with overdose (300 ng/mL) ligands of CCR5. CCL3, CCL4, CCL5 and their combination (CCL3/4/5) were respectively added into NIM every other day. After four-day treatment, NPCs or neurons were collected for staining or immunoblotting.
(§2) 1×10^^5 NPCs were seeded on coverslips in each well of 24-well plate for two days to 50% confluency upon transduction at 37° C. in a humidified 5% C02 incubator. The lentiviral shRNAs (MOIs of 20) were used to infect NPCs overnight at 37° C. The medium containing lentiviral particles was removed from wells and replaced with […] fresh pre-warmed NIM. The infected NPCs were collected for immunostaining or western blotting at 5 days after transduction.
Sections were subsequently washed and incubated with corresponding secondary antibodies for 1 h at room temperature. Immunolabeled sections were mounted by Fluoromount-G with Hoechst. For TUNEL staining, cells on coverslips were fixed in PBS with 4% PFA for 30 mins, and then incubated with Terminal Deoxynucleotidyl Transferase (TdT) Equilibration buffer (Elabscience) at 37° C. for 30 mins. NPCs were incubated in labeling solution (Elabscience) with TdT enzyme at 37° C. for 1 hour.

CCR5 = target: T1, CCR5 (Homo sapiens, UniProt P51681); experiment: CCR5 expression on cultured NPCs (immunostaining, Western blotting); type: cell-based; settings: immunostaining and Western blotting
T1 construct: endogenous in cells; host or cells: NPCs, immature and mature neurons differentiated from human H9 / eGFP-H9 embryonic stem cells
Procedure: as §1, §2
NPCs and neurons were washed using PBS and resuspended in RIPA buffer with protease inhibitor and phosphatase inhibitor. Samples were collected to 1.5 mL tubes on ice for 15 mins. […] All samples were quantified using Quick Start™ Bradford Protein Assay (Bio-RAD), and then Laemmli buffer (Bio-RAD) was added to each tube. […]
After running at 120 V for 40 mins, proteins were transferred to PVDF membranes at 400 mA for 30 mins. […] All intensity of bands was analysed by ImageJ software and normalized to corresponding GAPDH bands.

[3] = test system: neurons in the penumbra area; settings: 100 mg/kg, i.p. daily; cited from earlier work

T1 sequence (P51681 whole entry): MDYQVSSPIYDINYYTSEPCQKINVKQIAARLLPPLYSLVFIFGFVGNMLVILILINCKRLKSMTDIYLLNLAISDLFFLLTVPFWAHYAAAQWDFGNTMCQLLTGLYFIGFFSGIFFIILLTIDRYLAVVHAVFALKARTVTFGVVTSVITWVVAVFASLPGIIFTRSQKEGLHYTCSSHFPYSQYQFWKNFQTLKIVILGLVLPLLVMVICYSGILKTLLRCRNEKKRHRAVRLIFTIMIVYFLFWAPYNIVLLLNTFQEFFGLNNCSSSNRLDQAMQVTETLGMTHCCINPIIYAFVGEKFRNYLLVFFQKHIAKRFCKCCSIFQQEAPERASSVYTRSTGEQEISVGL

Molecule	Cleaved-caspase3 immunostaining in grafted cells [1]	Grafted (GFP+) cells in the stroke cavity [1]	Gross appearance of the cortex [1]	Survival of grafted NPCs (overall conclusion) [1]	CCR5 level in transplanted cortical tissue [2]	Level of CCL3, 4, 5 in transplanted cortical tissue [2]	Proportion of cleaved-caspase3+ cells in NPCs (NPCs)	also measured
fibrinogen	strong fluorescence	observed in the stroke cavity	collapsed cortex	insufficient to improve the survival of grafted NPCs	did not downregulate	did not show obvious difference	–	Fate of grafted cells ([1]; one month post-transplantation): some surviving cells, which did not proliferate and became GFAP positive astrocytes
Maraviroc [reference compound]	strong fluorescence	few or no GFP^+ cells	collapsed cortex	insufficient to improve the survival of grafted NPCs	did not downregulate	did not show obvious difference	–	TUNEL+ cell population in NPCs under CCR5 blockade (NPCs; apoptosis induced by CCLs): reduced the proportion of TUNEL^+ NPCs; Expression of CCR5 in NPCs under CCR5 blockade (CCR5): without reducing the expression of CCR5; Survival of neurons in the penumbra after stroke [3]: promoted the survival of those neurons and their synaptic connections
B1	–	–	–	–	–	–	increased	–
B2	–	–	–	–	–	–	increased	–
B3	–	–	–	–	–	–	increased	–
